Laboratory results from patent US20050209278A1, “Piperidinyl- and piperazinyl-sulfonylmethyl hydroxamic acids and their use as protease inhibitors” (priority 2002, published 2005).
Values joined by “and” are separate entries in the source; they are usually repeats but may differ in a detail not shown here. Equal values may be shown once.

What follows are compounds tested against T1, MMP-13 (Homo sapiens, UniProt P45452) (assay: In vitro MMP inhibition, Ki determination (fluorogenic substrate II)). Details: value outside parentheses; read-out: MMP-13 Ki.
T1 construct: made in house; host or cells: baculovirus / insect cells
Assay type: biochemical
Method in brief: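 Ki determined with human recombinant MMP-13, baculovirus-expressed as proenzyme and activated with APMA. Fluorogenic MCA/Dpa substrate II at 4 μM (at or below Km) with low enzyme in Tris buffer pH 7.5 with CaCl2. Incubation was 1 h at room temperature, with fluorescence read at 330/420 nm.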

First: CCc1ccc(C2CCN(S(=O)(=O)C3(C(=O)NO)CCN(CCOC)CC3)CC2)s1 [Example 314]
Second: CCCCOc1ccc(N2CCN(S(=O)(=O)C3(C(=O)NO)CCN(CCOC)CC3)CC2)nc1 [Example 325]
The Ki of the first is 220-fold higher: 19.6 nM for the first, 0.09 nM for the second.

First: O=C(NO)C1(S(=O)(=O)N2CCC(N3CCN(c4ccc(Cl)cc4)CC3)CC2)CCOCC1 [Example 315]
Second: O=C(O)c1ccc(N2CCN(S(=O)(=O)C3(C(=O)NO)CCOCC3)CC2)cc1 [Example 352]
The Ki of the first is 8.7-fold lower: 420 nM for the first, 3640 nM for the second. The first binds more tightly here.

`O=C(NO)C1(S(=O)(=O)N2CCN(c3ccc(-c4ccc(F)cc4F)cn3)CC2)CCOCC1` [Example 316] and `O=C(NO)C1(S(=O)(=O)N2CCN(c3ccc(-c4ccccc4F)cn3)CC2)CCOCC1` [Example 317] are within 1.5-fold of each other in Ki: 0.77 nM for the first, 0.71 nM for the second.

Compared with `COc1ccccc1-c1ccc(N2CCN(S(=O)(=O)C3(C(=O)NO)CCOCC3)CC2)nc1` [Example 318], `O=C(NO)C1(S(=O)(=O)N2CCN(c3ccc(-c4cccc(OC(F)(F)F)c4)cn3)CC2)CCOCC1` [Example 319] is 13-fold lower in Ki: 62.3 nM for the first, 4.62 nM for the second. The second binds more tightly here.

Compared with `O=C(NO)C1(S(=O)(=O)N2CCN(c3ccc(CCCC(F)(F)F)cc3)CC2)CCOCC1` [Example 320], `O=C(NO)C1(S(=O)(=O)N2CCN(c3ccc(CCCC(F)(F)F)cn3)CC2)CCOCC1` [Example 358] is 3.3-fold lower in Ki: 0.501 nM for the first, 0.15 nM for the second.

First: O=C(NO)C1(S(=O)(=O)N2CCN(c3cnn(CCCC(F)(F)F)c(=O)c3)CC2)CCOCC1 [Example 321]
Second: O=C(NO)C1(S(=O)(=O)N2CCN(c3ccc(CCCC(F)(F)F)c(F)c3)CC2)CCOCC1 [Example 389]
The Ki of the first is higher: over 10000 nM for the first, 0.47 nM for the second. The second binds more tightly here.

`O=C(NO)C1(S(=O)(=O)N2CCN(c3cnn(-c4ccccc4)c(=O)c3)CC2)CCOCC1` [Example 322] and `O=C(NO)C1(S(=O)(=O)N2CCN(c3cnn(-c4ccccc4)c(=O)c3Cl)CC2)CCOCC1` [Example 329] cannot be ordered by Ki: over 10000 nM for the first, over 10000 nM for the second.

First: CCCCc1ccc(C2CCN(S(=O)(=O)C3(C(=O)NO)CCOCC3)CC2)nc1 [Example 323]
Second: O=C(NO)C1(S(=O)(=O)N2CCC(c3ccc(CCCC(F)(F)F)cn3)CC2)CCOCC1 [Example 338]
The Ki of the first is 2.2-fold higher: 0.65 nM for the first, 0.302 nM for the second. The second binds more tightly here.

Compared with `COC(=O)c1ccc(N2CCN(S(=O)(=O)C3(C(=O)NO)CCOCC3)CC2)cc1` [Example 324], `O=C(NO)C1(S(=O)(=O)N2CCN(c3ccc(OCC(F)(F)C(F)F)cc3)CC2)CCOCC1` [Example 326] is 11-fold lower in Ki: 3.55 nM for the first, 0.31 nM for the second.

Going from `O=C(NO)C1(S(=O)(=O)N2CCN(c3ccc(-c4ccc(OC(F)(F)F)cc4)cc3)CC2)CCOCC1` [Example 327] to `O=C(NO)C1(S(=O)(=O)N2CCN(c3ncc(-c4ccc(OC(F)(F)F)cc4)s3)CC2)CCOCC1` [Example 364], the Ki falls from 0.499 nM to 0.106 nM (4.7-fold).

Going from `O=C(NO)C1(S(=O)(=O)N2CCN(c3ccc(-c4ccc(Cl)c(Cl)c4)cc3)CC2)CCOCC1` [Example 328] to `O=C(NO)C1(S(=O)(=O)N2CCN(c3ncc(-c4ccc(Cl)c(Cl)c4)s3)CC2)CCOCC1` [Example 369], the Ki rises from 0.71 nM to 1.35 nM (1.9-fold).

`O=C(NO)C1(S(=O)(=O)N2CCC(c3ccc(OCC(F)(F)C(F)(F)F)cc3)CC2)CCOCC1` [Example 330] and `O=C(NO)C1(S(=O)(=O)N2CCC(c3ccc(OCC(F)(F)F)cc3)CC2)CCOCC1` [Example 357] are within 1.5-fold of each other in Ki: 0.92 nM for the first, 1.2 nM for the second.

Compared with `O=C(NO)C1(S(=O)(=O)N2CCN(c3ccc(Br)cn3)CC2)CCOCC1` [Example 331], `O=C(NO)C1(S(=O)(=O)N2CCN(c3ncc(-c4cccnc4)s3)CC2)CCOCC1` [Example 382] is 3.4-fold higher in Ki: 0.193 nM for the first, 0.647 nM for the second. The first binds more tightly here.

First: COCCN1CCC(C(=O)NO)(S(=O)(=O)N2CCN(c3ncccn3)CC2)CC1 [Example 332]
Second: CCCCc1cnc(N2CCN(S(=O)(=O)C3(C(=O)NO)CCN(CCOC)CC3)CC2)nc1 [Example 334]
The Ki of the first is 10-fold higher: 28.2 nM for the first, 2.75 nM for the second. The second binds more tightly here.

Going from `O=C(NO)C1(S(=O)(=O)N2CCN(c3ccc(OCC4CC4)c(F)c3)CC2)CCOCC1` [Example 333] to `CCCCOc1cccc(N2CCN(S(=O)(=O)C3(C(=O)NO)CCOCC3)CC2)c1` [Example 354], the Ki rises from 1.12 nM to 165 nM (150-fold). The first binds more tightly here.

`O=C(NO)C1(S(=O)(=O)N2CCN(c3ccc(CCC(F)(F)C(F)(F)F)cc3)CC2)CCN(C2CC2)CC1` [Example 335] and `O=C(NO)C1(S(=O)(=O)N2CCC(c3ccc(CCCC(F)(F)F)cc3)CC2)CCN(C2CC2)CC1` [Example 351] are within 1.5-fold of each other in Ki: 0.489 nM for the first, 0.359 nM for the second.

Compared with `O=C(NO)C1(S(=O)(=O)N2CCN(c3ccc(OCC(F)(F)C(F)F)cc3)CC2)CCOCC1` [Example 336], `O=C(NO)C1(S(=O)(=O)N2CCN(c3cccc(OCCCC(F)(F)F)c3)CC2)CCOCC1` [Example 355] is 98-fold higher in Ki: 0.522 nM for the first, 51.1 nM for the second.

Compared with `O=C(NO)C1(S(=O)(=O)N2CCC(c3ccc(OC(F)(F)C(F)F)cc3)CC2)CCOCC1` [Example 337], `O=C(NO)C1(S(=O)(=O)N2CCC(c3ccc(OC(F)(F)C(F)(F)F)cc3)CC2)CCOCC1` [Example 349] is 7.2-fold higher in Ki: 0.708 nM for the first, 5.08 nM for the second.

Going from `O=C(NO)C1(S(=O)(=O)N2CCC(c3ccc(CCC(F)(F)C(F)(F)F)cn3)CC2)CCOCC1` [Example 340] to `O=C(NO)C1(S(=O)(=O)N2CCC(c3ccc(CCC(F)(F)F)cn3)CC2)CCOCC1` [Example 367], the Ki rises from 0.107 nM to 0.835 nM (7.8-fold).

Going from `CCN1CCC(C(=O)NO)(S(=O)(=O)N2CCN(c3ccc(-c4ccccc4)c(F)c3)CC2)CC1` [Example 341] to `O=C(NO)C1(S(=O)(=O)N2CCN(c3ncc(-c4cccc(-c5ccccc5)c4)s3)CC2)CCOCC1` [Example 365], the Ki rises from 2.59 nM to 101 nM (39-fold). The first binds more tightly here.

Going from `O=C(NO)C1(S(=O)(=O)N2CCN(c3ccc(OCCCC(F)(F)F)cc3)CC2)CC(O)C1` (stereo not drawn) [Example 342] to `O=C(NO)C1(S(=O)(=O)N2CCN(c3ccc(CCCC(F)(F)F)cc3F)CC2)CCOCC1` [Example 386], the Ki falls from 3.89 nM to 2.29 nM (1.7-fold). The second binds more tightly here.

First: O=C(NO)C1(S(=O)(=O)N2CCN(c3ncc(-c4ccc(Cl)cc4)s3)CC2)CCOCC1 [Example 343]
Second: Cc1ccc(-c2cnc(N3CCN(S(=O)(=O)C4(C(=O)NO)CCOCC4)CC3)s2)cc1 [Example 344]
The Ki of the first is 1.6-fold lower: 0.167 nM for the first, 0.267 nM for the second.

`O=C(NO)C1(S(=O)(=O)N2CCN(c3ncc(-c4ccc(F)cc4)s3)CC2)CCOCC1` [Example 345] and `O=C(NO)C1(S(=O)(=O)N2CCN(c3ncc(-c4ccc(O)cc4)s3)CC2)CCOCC1` [Example 368] are within 1.5-fold of each other in Ki: 0.236 nM for the first, 0.329 nM for the second.

First: O=C(NO)C1(S(=O)(=O)N2CCN(c3ncc(-c4ccc(C(F)(F)F)cc4)s3)CC2)CCOCC1 [Example 346]
Second: CC(C)(C)c1ccc(-c2cnc(N3CCN(S(=O)(=O)C4(C(=O)NO)CCOCC4)CC3)s2)cc1 [Example 347]
The Ki of the first is 8.9-fold lower: 0.167 nM for the first, 1.48 nM for the second. The first binds more tightly here.

Compared with `Cc1ccccc1-c1cnc(N2CCN(S(=O)(=O)C3(C(=O)NO)CCOCC3)CC2)s1` [Example 348], `NC(=O)c1ccccc1-c1cnc(N2CCN(S(=O)(=O)C3(C(=O)NO)CCOCC3)CC2)s1` [Example 383] is 35-fold higher in Ki: 2.99 nM for the first, 104 nM for the second. The first binds more tightly here.

`O=C(NO)C1(S(=O)(=O)N2CCC(c3ccc(OCC(F)(F)C(F)F)cc3)CC2)CCN(C2CC2)CC1` [Example 350] and `O=C(NO)C1(S(=O)(=O)N2CCC(c3ccc(OCC(F)(F)C(F)F)cc3)CC2)CCN(CCN2CCOCC2)CC1` [Example 385] are within 1.5-fold of each other in Ki: 0.523 nM for the first, 0.378 nM for the second.

Going from `O=C(NO)C1(S(=O)(=O)N2CCC(c3ccc(CCCC(F)(F)F)cc3)CC2)CCOCC1` [Example 353] to `O=C(NO)C1(S(=O)(=O)N2CCC(COCc3ccccc3)CC2)CCOCC1` [Example 373], the Ki rises from 0.378 nM to 3.37 nM (8.9-fold).

Going from `CCCCCc1cccc(N2CCN(S(=O)(=O)C3(C(=O)NO)CCOCC3)CC2)c1` [Example 356] to `CCCCCc1ccc(-c2cnc(N3CCN(S(=O)(=O)C4(C(=O)NO)CCOCC4)CC3)s2)cc1` [Example 380], the Ki falls from 35.3 nM to 0.651 nM (54-fold).

First: O=C(NO)C1(S(=O)(=O)N2CCN(c3ncc(-c4ccc(F)cc4F)s3)CC2)CCOCC1 [Example 359]
Second: Cc1cccc(-c2cnc(N3CCN(S(=O)(=O)C4(C(=O)NO)CCOCC4)CC3)s2)c1 [Example 370]
The Ki of the first is 9.5-fold lower: 0.439 nM for the first, 4.16 nM for the second.

Going from `O=C(NO)C1(S(=O)(=O)N2CCN(c3ncc(-c4ccc(-c5ccccc5)cc4)s3)CC2)CCOCC1` [Example 360] to `CCc1ccc(-c2cnc(N3CCN(S(=O)(=O)C4(C(=O)NO)CCOCC4)CC3)s2)cc1` [Example 381], the Ki falls from 0.426 nM to 0.074 nM (5.8-fold). The second binds more tightly here.

`O=C(NO)C1(S(=O)(=O)N2CCN(c3ncc(-c4ccc5c(c4)OCO5)s3)CC2)CCOCC1` [Example 362] and `N#Cc1cccc(-c2cnc(N3CCN(S(=O)(=O)C4(C(=O)NO)CCOCC4)CC3)s2)c1` [Example 384] are within 1.5-fold of each other in Ki: 0.408 nM for the first, 0.272 nM for the second.

Compared with `O=C(NO)C1(S(=O)(=O)N2CCN(c3ncc(-c4ccc([N+](=O)[O-])cc4)s3)CC2)CCOCC1` [Example 363], `CC(C)c1ccc(-c2cnc(N3CCN(S(=O)(=O)C4(C(=O)NO)CCOCC4)CC3)s2)cc1` [Example 366] is 2.4-fold higher in Ki: 0.076 nM for the first, 0.182 nM for the second.

Compared with `COc1ccc(-c2cnc(N3CCN(S(=O)(=O)C4(C(=O)NO)CCOCC4)CC3)s2)cc1OC` [Example 371], `CCCCc1ccc(-c2cnc(N3CCN(S(=O)(=O)C4(C(=O)NO)CCOCC4)CC3)s2)cc1` [Example 379] is 8.1-fold lower in Ki: 1.35 nM for the first, 0.167 nM for the second.

First: CCC=C1CCN(S(=O)(=O)C2(C(=O)NO)CCOCC2)CC1 [Example 374]
Second: O=C(NO)C1(S(=O)(=O)N2CCC(COCC(F)(F)C(F)F)CC2)CCOCC1 [Example 375]
The Ki of the first is 89-fold lower: 5.72 nM for the first, 509 nM for the second.

Compared with `O=C(NO)C1(S(=O)(=O)N2CCC(COCC(F)(F)C(F)(F)F)CC2)CCOCC1` [Example 376], `O=C(NO)C1(S(=O)(=O)N2CCC(COCC(F)(F)C(F)(F)C(F)(F)F)CC2)CCOCC1` [Example 377] is 2.8-fold higher in Ki: 31.2 nM for the first, 87.5 nM for the second. The first binds more tightly here.

Compared with `O=C(NO)C1(S(=O)(=O)N2CCC(COCC(F)(F)C(F)(F)C(F)(F)C(F)F)CC2)CCOCC1` [Example 378], `O=C(NO)C1(S(=O)(=O)N2CCN(c3ncc(-c4ccccn4)s3)CC2)CCOCC1` [Example 387] is 1.6-fold lower in Ki: 48.4 nM for the first, 31 nM for the second. The second binds more tightly here.

Work on `CCCCc1ccc(C2CCN(S(=O)(=O)C3(C(=O)NO)CCNCC3)CC2)nc1` [Example 388] yielded a Ki of 15.1 nM.

For `O=C(NO)C1(S(=O)(=O)N2CCN(c3ncc(/C=C/c4ccccc4)s3)CC2)CCOCC1` [Example 361], the Ki was 1.06 nM and 1.07 nM.
In the case of `O=C(NO)C1(S(=O)(=O)N2CCN(c3ccc(-c4ccccc4)cn3)CC2)CCOCC1` [Example 372], the Ki is reported as 0.485 nM and 0.654 nM.
